The values below come from patent US20260176289A1, “SMALL MOLECULE INHIBITORS OF KRAS PROTEINS” (Merck Sharp & Dohme LLC, priority 2022, published 2026).

For orientation: IC50 means the concentration that gives 50% inhibition.

In one assay the target is KRAS-WT (Homo sapiens, UniProt P01116). The experiment in a line: SOS-catalyzed nucleotide exchange assay (Procedure A, TR-FRET), KRAS-WT. The class given is biochemical. As to conditions: nucleotide exchange, read-out: KRAS WT GNE IC50. The method, boiled down: (§1)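 Compounds (10-point, 3-fold) were preincubated 60 min at room temperature with a biotinylated RAS/Bodipy-GDP/Tb-streptavidin TR-FRET complex. Exchange was started with human SOS plus 3 mM GTP. RAS/SOS: G12C 3/40 nM, WT 1/40 nM, NRAS 1.25/40 nM (60 min); G12V 1.25/160 nM (90 min). The 520/495 ratio was fit four-parameter.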

Assay [1] deals with KRAS-G12C (C51S/C80L/C118S) (Homo sapiens, UniProt P01116, C118S/C51S/C80L/G12C). Put plainly: SOS-catalyzed nucleotide exchange assay (Procedure A, TR-FRET), KRAS-G12C. As to conditions: nucleotide exchange, Procedure A; read-out: KRAS G12C GNE IC50. The class given is biochemical. The method, boiled down: as §1
On the technique in general: TR-FRET usually uses a lanthanide donor and a delayed reading to cut background.

Another assay has as its target KRAS-G12D (Homo sapiens, UniProt P01116, G12D). Put plainly: SOS-catalyzed nucleotide exchange assay (Procedure A, TR-FRET), KRAS-G12D. The class given is biochemical. As to conditions: nucleotide exchange, read-out: KRAS G12D GNE IC50. Summed up: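 Signal ratio (520/495 nm, excitation 340 nm) reports Bodipy-GDP retention on biotinylated RAS after SOS-catalyzed exchange with 3 mM GTP. SOS was 40 nM, except 160 nM for G12V. Room-temperature exchange lasted 60 min (90 min for G12V), following a 60 min compound preincubation.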

A further assay has as its target KRAS-G12V (Homo sapiens, UniProt P01116, G12V). Put plainly: SOS-catalyzed nucleotide exchange assay (Procedure A, TR-FRET), KRAS-G12V. In kind it is biochemical. As to conditions: nucleotide exchange, read-out: KRAS G12V GNE IC50. Summed up: as §1
In another assay the target is KRAS-G13D (Homo sapiens, UniProt P01116, G13D). Put plainly: SOS-catalyzed nucleotide exchange assay (Procedure A, TR-FRET), KRAS-G13D. As to conditions: nucleotide exchange, Procedure A; read-out: KRAS G13D GNE IC50. The class given is biochemical.
In another assay the test system is MKN-1 cells. Put plainly: Cellular phospho-ERK assay, MKN-1 cells (amplified wild-type KRAS). In kind it is cell-based. To be noted: Homo sapiens, amplified wild-type KRAS, 2 hours, read-out: MKN1 pERK IC50. Summed up:
(§2)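 Cells were seeded overnight, then treated 2 h at 37° C with compound in a 10-point, 1:3 titration from 30 μM top final concentration. Lysates were assayed by AlphaLISA SureFire Ultra for p-ERK and total ERK. IC50 came from a 4-parameter logistic fit of the p-ERK/total ERK ratio.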

In another assay the test system is PANC08.13 cells. Put plainly: Cellular phospho-ERK assay, PANC08.13 cells (homozygous KRAS-G12D). The class given is cell-based. To be noted: Homo sapiens, PANC-08-13, KRAS-G12D, 2 hours, read-out: PANC-08.13 pERK IC50. The method, boiled down:
as §2

Another assay has as its system AsPC-1 cells. Put plainly: Cellular phospho-ERK assay, AsPC-1 cells (homozygous KRAS-G12D). In kind it is cell-based. To be noted: Homo sapiens, ASPC1, 2 h, KRAS-G12D, 2 hours, read-out: AsPC1 pERK IC50. The method, boiled down:
as §2

In a further assay the test system is SW620 cells. The experiment in a line: Cellular phospho-ERK assay, SW620 cells (homozygous KRAS-G12V). In kind it is cell-based. As to conditions: Homo sapiens, SW-620, KRAS-G12V, 2 hours, read-out: SW620 pERK IC50. The method, boiled down:
as §2

Chain of KRAS-G12D (P01116 with tags, fused parts or gaps isoform P01116-2 G12D): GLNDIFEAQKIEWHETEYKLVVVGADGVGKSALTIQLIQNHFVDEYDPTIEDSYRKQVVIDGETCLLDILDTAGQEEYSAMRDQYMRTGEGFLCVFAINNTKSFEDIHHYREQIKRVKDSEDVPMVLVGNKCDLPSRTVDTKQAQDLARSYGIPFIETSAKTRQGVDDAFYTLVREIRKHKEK
Chain of KRAS-G12C (C51S/C80L/C118S) (P01116 with tags, fused parts or gaps isoform P01116-2 G12C/C51S/C80L/C118S): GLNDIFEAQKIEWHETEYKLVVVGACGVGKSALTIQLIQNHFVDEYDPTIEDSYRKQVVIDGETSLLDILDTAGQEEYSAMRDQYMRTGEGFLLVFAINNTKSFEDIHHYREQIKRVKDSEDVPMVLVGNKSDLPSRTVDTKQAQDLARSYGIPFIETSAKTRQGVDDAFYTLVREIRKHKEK
Chain of KRAS-G12V (P01116 with tags, fused parts or gaps isoform P01116-2 G12V): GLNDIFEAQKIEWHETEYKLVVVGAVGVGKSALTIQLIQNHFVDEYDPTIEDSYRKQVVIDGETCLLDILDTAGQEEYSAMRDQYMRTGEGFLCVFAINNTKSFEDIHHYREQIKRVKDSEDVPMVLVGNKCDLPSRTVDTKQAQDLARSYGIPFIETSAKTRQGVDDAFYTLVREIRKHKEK
Chain of KRAS-G13D (P01116 with tags, fused parts or gaps isoform P01116-2 G13D): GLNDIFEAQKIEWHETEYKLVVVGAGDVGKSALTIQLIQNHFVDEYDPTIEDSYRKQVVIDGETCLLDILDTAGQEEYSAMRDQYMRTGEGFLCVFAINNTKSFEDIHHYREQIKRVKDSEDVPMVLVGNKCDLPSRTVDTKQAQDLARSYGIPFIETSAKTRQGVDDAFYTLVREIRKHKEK
Chain of KRAS-WT (P01116 with tags, fused parts or gaps isoform P01116-2): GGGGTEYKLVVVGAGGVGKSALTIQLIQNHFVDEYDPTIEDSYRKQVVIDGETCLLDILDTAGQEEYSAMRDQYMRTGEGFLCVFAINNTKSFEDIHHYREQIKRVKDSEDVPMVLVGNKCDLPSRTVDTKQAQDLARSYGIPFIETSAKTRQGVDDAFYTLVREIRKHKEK

Consider `Cc1cc2[nH]ncc2c(-c2nccc3c2sc2nc(OC[C@@]45CCCN4C[C@H](F)C5)nc(N4CCC[C@@](C)(O)C4)c23)c1C(F)(F)F` [Ex-128, (3R)-1-(2-(((2R, 7aS)-2-fluorotetra-hydro-1H-pyrrol-izin-7a(5H)-yl)meth-oxy)-8-(6-methyl-5-(trifluoromethyl)-1H-indazol-4-yl)-pyrido[4′,3′:4,5]thieno[2,3-d]pyr-imidin-4-yl)-3-methylpiperidin-3-ol], for which the IC50 at KRAS-WT came to 246 nM; in [1] it was 102 nM; at KRAS-G12D it was 96.9 nM; on KRAS-G12V it was 143 nM; at KRAS-G13D, 204 nM; with MKN-1 cells it was 214 nM. For the same compound, the results for the IC50 in the assay on PANC08.13 cells and with AsPC-1 cells were 242 nM and 667 nM, respectively.

As for `Cc1cc2[nH]ncc2c(-c2nccc3c4c(N5CCC[C@@](C)(O)C5)nc(OC[C@@]56CCCN5C[C@H](F)C6)nc4n(C)c23)c1C(F)(F)F` (single isomer, unassigned) [Ex-5], the IC50 was found to be 101 nM on KRAS-WT; 96.8 nM in [1]; 61.2 nM on KRAS-G12D; 80.7 nM at KRAS-G12V; 94.3 nM at KRAS-G13D; 127 nM with MKN-1 cells. The IC50 in the assay on PANC08.13 cells turned out to be 188 nM; in the assay on AsPC-1 cells it was 694 nM.

As for `Cn1c2nc(OC[C@@]34CCCN3C[C@H](F)C4)nc(N3CCOC[C@@](C)(O)C3)c2c2ccnc(-c3ccc(F)c4sc(N)c(C#N)c34)c21` [Ex-16, 2-amino-7-fluoro-4-(2-(((2R,7aS)-2-fluorotetrahydro-1H-pyrrolizin-7a(5H)-yl)methoxy)-4-((S)-6-hydroxy-6-methyl-1,4-oxazepan-4-yl)-9-methyl-9H-pyrido[4′,3′:4,5]pyrrolo[2,3-d]pyrimidin-8-yl)benzo[b]thiophene-3-carbonitrile], the IC50 was 765 nM on KRAS-WT; 1320 nM in assay [1]; 952 nM at KRAS-G12D; 561 nM on KRAS-G12V; 315 nM on KRAS-G13D; 1770 nM in the assay with MKN-1 cells. In addition, the IC50 in the assay on PANC08.13 cells is 5450 nM; with SW620 cells, 8490 nM.

As for `C#Cc1c(C)cc2[nH]ncc2c1-c1nccc2c1sc1nc(OC[C@@]34CCCN3C[C@H](F)C4)nc(N3CCOC[C@@](C)(O)C3)c12` [Ex-33, (6S)-4-(8-(5-ethynyl-6-methyl-1H-indazol-4-yl)-2-(((2R,7aS)-2-fluorotetrahydro-1H-pyrrolizin-7a(5H)-yl)methoxy)pyrido[4′,3′:4,5]thieno[2,3-d]pyrimidin-4-yl)-6-methyl-1,4-oxazepan-6-ol], the IC50 at KRAS-WT turned out to be 35.7 nM; in [1], 35.3 nM; at KRAS-G12D, 13.6 nM; on KRAS-G12V it was 28.7 nM; at KRAS-G13D, 19.7 nM; with MKN-1 cells, 52.9 nM. The IC50 with PANC08.13 cells was determined as 60.1 nM; in the assay with SW620 cells, 126 nM.

`Cc1cc2[nH]ncc2c(-c2nccc3c2sc2nc(OC[C@@]45CCCN4C[C@H](F)C5)nc(N4CCOC[C@@](C)(O)C4)c23)c1Cl` [Ex-32, (6S)-4-(8-(5-chloro-6-methyl-1H-indazol-4-yl)-2-(((2R,7aS)-2-fluorotetrahydro-1H-pyrrolizin-7a(5H)-yl)methoxy)pyrido[4′,3′:4,5]thieno[2,3-d]pyrimidin-4-yl)-6-methyl-1,4-oxazepan-6-ol]: the IC50 came to 202 nM at KRAS-WT; 91.7 nM in [1]; 101 nM at KRAS-G12D; 212 nM on KRAS-G12V; 111 nM at KRAS-G13D; 274 nM with MKN-1 cells. For the same compound, the IC50 in the assay on PANC08.13 cells was determined as 174 nM; in the assay on SW620 cells, 222 nM.

As for `C#Cc1cccc2cccc(-c3nccc4c3sc3nc(OC[C@@]56CCCN5C[C@H](F)C6)nc(N5CCOC[C@@](C)(O)C5)c34)c12` [Ex-127, (S)-4-(8-(8-ethynyl-naphthalen-1-yl)-2-(((2R,7aS)-2-fluoro-tetrahydro-1H-pyr-rolizin-7a(5H)-yl)-methoxy)pyrido[4′, 3′:4,5]thieno[2,3-d]pyrimidin-4-yl)-6-methyl-1,4-oxaze-pan-6-ol], the IC50 on KRAS-WT turned out to be 233 nM; in assay [1], 91.7 nM; at KRAS-G12D, 103 nM; at KRAS-G12V it was 121 nM; at KRAS-G13D, 287 nM; in the assay on MKN-1 cells, 510 nM. For the same compound, the figures for the IC50 with PANC08.13 cells and in the assay on SW620 cells were 351 nM and 483 nM, respectively.

In the case of `Cc1cc2[nH]ncc2c(-c2cncc3c2sc2nc(OC[C@@]45CCCN4C[C@H](F)C5)nc(N4CCOC[C@@](C)(O)C4)c23)c1C(F)(F)F` [Ex-273, (6S)-4-(2-(((2R,7aS)-2-fluorotetrahydro-1H-pyrrolizin-7a(5H)-yl)methoxy)-8-(6-methyl-5-(trifluoromethyl)-1H-indazol-4-yl)pyrido[3′,4′:4,5]thieno[2,3-d]pyrimidin-4-yl)-6-methyl-1,4-oxazepan-6-ol], the IC50 is 1230 nM at KRAS-WT; 456 nM in assay [1]; 360 nM at KRAS-G12D; 574 nM on KRAS-G12V; 1100 nM at KRAS-G13D; 562 nM in the assay with PANC08.13 cells.

For the compound `Cc1cc2[nH]ncc2c(-c2nccc3c2oc2nc(OC[C@@]45CCCN4C[C@H](F)C5)nc(N4CCOC[C@@](C)(O)C4)c23)c1C(F)(F)F` [Ex-290, (6S)-4-(2-(((2R,7aS)-2-fluorotetrahydro-1H-pyrrolizin-7a(5H)-yl)methoxy)-8-(6-methyl-5-(trifluoromethyl)-1H-indazol-4-yl)pyrido[4′,3′:4,5]furo[2,3-d]pyrimidin-4-yl)-6-methyl-1,4-oxazepan-6-ol], the IC50 on KRAS-WT was found to be 1400 nM; in assay [1], 175 nM; at KRAS-G12D, 611 nM; on KRAS-G12V it was 365 nM; on KRAS-G13D it was 1030 nM; in the assay with PANC08.13 cells it was 2330 nM.

For the compound `COc1cc2c3c(N4CCOC[C@@](C)(O)C4)nc(OC[C@@]45CCCN4C[C@H](F)C5)nc3n(C)c2c(-c2c(C(F)(F)F)c(C)cc3[nH]ncc23)n1` [Ex-26, (6S)-4-(2-(((2R,7aS)-2-fluorotetrahydro-1H-pyrrolizin-7a(5H)-yl)methoxy)-6-methoxy-9-methyl-8-(6-methyl-5-(trifluoromethyl)-1H-indazol-4-yl)-9H-pyrido[4′,3′:4,5]pyrrolo[2,3-d]pyrimidin-4-yl)-6-methyl-1,4-oxazepan-6-ol], the IC50 at KRAS-WT was 189 nM; in assay [1] it was 209 nM; on KRAS-G12D, 96 nM; at KRAS-G12V, 96.3 nM; at KRAS-G13D it was 94.3 nM; in the assay on MKN-1 cells it was 325 nM. Further, the 50% inhibitory concentration (IC50) in the assay on PANC08.13 cells is 170 nM; in the assay on SW620 cells, 709 nM.

With `Cc1cc2[nH]nc(C#N)c2c(-c2nccc3c4c(N5CCOC[C@@](C)(O)C5)nc(OC[C@@]56CCCN5C[C@H](F)C6)nc4n(C)c23)c1C(F)(F)F` (single isomer, unassigned) [Ex-4], the IC50 at KRAS-WT is 568 nM; in [1], 124 nM; on KRAS-G12D, 339 nM; at KRAS-G12V it was 536 nM; at KRAS-G13D, 430 nM; with PANC08.13 cells it was 1640 nM.

`Cc1nc2[nH]ncc2c(-c2nccc3c4c(N5CCOC[C@@](C)(O)C5)nc(OC[C@@]56CCCN5C[C@H](F)C6)nc4n(C)c23)c1C(F)(F)F` [Ex-14, (6S)-4-(2-(((2R,7aS)-2-fluorotetrahydro-1H-pyrrolizin-7a(5H)-yl)methoxy)-9-methyl-8-(6-methyl-5-(trifluoromethyl)-1H-pyrazolo[3,4-b]pyridin-4-yl)-9H-pyrido[4′,3′:4,5]pyrrolo[2,3-d]pyrimidin-4-yl)-6-methyl-1,4-oxazepan-6-ol]: the IC50 at KRAS-WT turned out to be 681 nM; in assay [1], 233 nM; on KRAS-G12D, 276 nM; at KRAS-G12V it was 404 nM; at KRAS-G13D, 543 nM; in the assay on PANC08.13 cells, 561 nM.

Regarding `Cn1c2nc(OC[C@@]34CCCN3C[C@H](F)C4)nc(N3CCOC[C@@](C)(O)C3)c2c2ccnc(-c3c(C(F)F)c(Cl)cc4[nH]ncc34)c21` (single isomer, unassigned) [Ex-11], the IC50 is 158 nM on KRAS-WT; 41.1 nM in assay [1]; 84.2 nM on KRAS-G12D; 125 nM on KRAS-G12V; 105 nM on KRAS-G13D; 240 nM in the assay on PANC08.13 cells. The IC50 in the assay with AsPC-1 cells was determined as 1200 nM.
